In US8765748B2, “Indazolyl, benzimidazolyl, benzotriazolyl substituted indolinone derivatives as kinase inhibitors useful in the treatment of cancer” (University Health Network, priority 2007, dated 2014):

What was measured:
Test in all cases: Kinase Selectivity Assay (CEREP, HTRF)
Format in all cases: biochemical
KDR kinase (VEGFR2) = KDR kinase (VEGFR2) (Homo sapiens, UniProt P35968); details: read-out: % Inhibition at 10 μM Concentration, KDR (VEGFR2)
Procedure: (§1) kinase, ROCK2, RSK2, Src kinase, Syk, and TRKA. The % Inhibition was determined

CDC2/CDK1 (cycB) = target: T1, CDC2/CDK1 (cycB) (Homo sapiens, UniProt P06493); details: read-out: % Inhibition at 10 μM Concentration, CDC2/CDK1
T1 construct: CEREP, France (ran the assays)
T1 sequence (P06493 whole entry): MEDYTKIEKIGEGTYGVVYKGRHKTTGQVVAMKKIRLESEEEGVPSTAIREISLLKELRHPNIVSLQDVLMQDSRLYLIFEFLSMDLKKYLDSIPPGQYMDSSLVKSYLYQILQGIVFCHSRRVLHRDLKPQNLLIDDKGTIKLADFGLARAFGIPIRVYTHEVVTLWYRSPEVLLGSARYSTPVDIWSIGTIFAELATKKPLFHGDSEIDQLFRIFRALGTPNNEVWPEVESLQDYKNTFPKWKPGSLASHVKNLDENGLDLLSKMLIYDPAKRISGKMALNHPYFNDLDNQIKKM
T1 sequence (P14635 whole entry partner): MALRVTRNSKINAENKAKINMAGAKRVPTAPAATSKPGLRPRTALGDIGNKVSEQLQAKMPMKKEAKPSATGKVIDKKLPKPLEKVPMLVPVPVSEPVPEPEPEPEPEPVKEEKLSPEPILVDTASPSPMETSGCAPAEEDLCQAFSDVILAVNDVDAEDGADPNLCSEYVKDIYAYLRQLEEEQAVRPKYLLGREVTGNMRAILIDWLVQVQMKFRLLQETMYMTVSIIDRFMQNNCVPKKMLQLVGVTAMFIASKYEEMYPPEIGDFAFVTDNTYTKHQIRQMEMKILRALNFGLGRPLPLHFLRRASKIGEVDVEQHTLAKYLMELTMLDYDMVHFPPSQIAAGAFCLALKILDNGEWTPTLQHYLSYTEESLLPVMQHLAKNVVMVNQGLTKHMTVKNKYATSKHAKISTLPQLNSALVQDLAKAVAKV
Procedure: as §1

PKCg = PKCg (Homo sapiens, UniProt P05129); details: read-out: % Inhibition at 10 μM Concentration, PKCgamma
Procedure: as §1

PDGFRb kinase = PDGFRb kinase (Homo sapiens, UniProt P09619); details: read-out: % Inhibition at 10 μM Concentration, PDGFRbeta
Sequence of PDGFRb kinase (P09619 33-1106): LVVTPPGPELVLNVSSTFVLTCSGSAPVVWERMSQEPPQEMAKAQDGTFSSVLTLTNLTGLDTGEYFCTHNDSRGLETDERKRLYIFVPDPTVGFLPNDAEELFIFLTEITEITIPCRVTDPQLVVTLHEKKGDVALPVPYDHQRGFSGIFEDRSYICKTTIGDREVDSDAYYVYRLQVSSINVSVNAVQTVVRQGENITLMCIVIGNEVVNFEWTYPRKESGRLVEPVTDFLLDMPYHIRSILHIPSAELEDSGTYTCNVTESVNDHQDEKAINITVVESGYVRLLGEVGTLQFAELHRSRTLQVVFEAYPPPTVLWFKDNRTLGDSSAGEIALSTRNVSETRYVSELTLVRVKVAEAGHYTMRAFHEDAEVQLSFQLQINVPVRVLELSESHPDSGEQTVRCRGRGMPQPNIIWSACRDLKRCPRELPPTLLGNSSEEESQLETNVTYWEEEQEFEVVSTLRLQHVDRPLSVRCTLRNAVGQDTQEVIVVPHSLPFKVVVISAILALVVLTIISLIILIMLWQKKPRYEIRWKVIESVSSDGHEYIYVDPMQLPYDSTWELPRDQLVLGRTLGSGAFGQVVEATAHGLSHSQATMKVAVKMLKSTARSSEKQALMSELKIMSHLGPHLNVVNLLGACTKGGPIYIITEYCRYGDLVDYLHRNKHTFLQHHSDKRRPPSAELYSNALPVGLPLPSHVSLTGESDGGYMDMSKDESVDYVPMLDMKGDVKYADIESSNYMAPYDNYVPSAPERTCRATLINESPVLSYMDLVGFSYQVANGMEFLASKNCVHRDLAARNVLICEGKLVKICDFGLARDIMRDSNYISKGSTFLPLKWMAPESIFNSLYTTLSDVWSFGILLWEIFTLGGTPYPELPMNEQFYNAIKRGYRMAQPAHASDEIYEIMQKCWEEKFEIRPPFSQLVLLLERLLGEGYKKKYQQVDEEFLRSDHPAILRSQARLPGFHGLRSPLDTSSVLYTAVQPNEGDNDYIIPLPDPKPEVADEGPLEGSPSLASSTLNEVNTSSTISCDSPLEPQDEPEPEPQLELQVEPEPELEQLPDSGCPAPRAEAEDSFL
Procedure: as §1

PKA = PKA (Homo sapiens, UniProt P17612); details: read-out: % Inhibition at 10 μM Concentration, PKA
Procedure: as §1

p38d kinase = target: T2, p38d kinase (Homo sapiens, UniProt O15264); details: read-out: % Inhibition at 10 μM Concentration, p38delta
T2 sequence (O15264 1-365): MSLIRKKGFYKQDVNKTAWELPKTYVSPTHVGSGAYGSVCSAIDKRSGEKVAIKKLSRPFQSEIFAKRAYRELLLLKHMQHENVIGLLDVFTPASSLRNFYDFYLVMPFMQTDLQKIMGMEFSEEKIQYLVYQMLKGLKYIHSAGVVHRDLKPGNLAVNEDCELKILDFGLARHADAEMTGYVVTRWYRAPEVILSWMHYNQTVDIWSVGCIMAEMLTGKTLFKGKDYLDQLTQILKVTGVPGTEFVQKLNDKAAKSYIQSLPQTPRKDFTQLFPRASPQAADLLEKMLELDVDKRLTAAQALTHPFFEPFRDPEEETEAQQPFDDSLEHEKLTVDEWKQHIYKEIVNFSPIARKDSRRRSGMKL
Procedure: as §1

FLT-3 kinase = target: T3, FLT-3 kinase (Homo sapiens, UniProt P36888); details: read-out: % Inhibition at 10 μM Concentration, FLT-3
T3 sequence (P36888 27-993): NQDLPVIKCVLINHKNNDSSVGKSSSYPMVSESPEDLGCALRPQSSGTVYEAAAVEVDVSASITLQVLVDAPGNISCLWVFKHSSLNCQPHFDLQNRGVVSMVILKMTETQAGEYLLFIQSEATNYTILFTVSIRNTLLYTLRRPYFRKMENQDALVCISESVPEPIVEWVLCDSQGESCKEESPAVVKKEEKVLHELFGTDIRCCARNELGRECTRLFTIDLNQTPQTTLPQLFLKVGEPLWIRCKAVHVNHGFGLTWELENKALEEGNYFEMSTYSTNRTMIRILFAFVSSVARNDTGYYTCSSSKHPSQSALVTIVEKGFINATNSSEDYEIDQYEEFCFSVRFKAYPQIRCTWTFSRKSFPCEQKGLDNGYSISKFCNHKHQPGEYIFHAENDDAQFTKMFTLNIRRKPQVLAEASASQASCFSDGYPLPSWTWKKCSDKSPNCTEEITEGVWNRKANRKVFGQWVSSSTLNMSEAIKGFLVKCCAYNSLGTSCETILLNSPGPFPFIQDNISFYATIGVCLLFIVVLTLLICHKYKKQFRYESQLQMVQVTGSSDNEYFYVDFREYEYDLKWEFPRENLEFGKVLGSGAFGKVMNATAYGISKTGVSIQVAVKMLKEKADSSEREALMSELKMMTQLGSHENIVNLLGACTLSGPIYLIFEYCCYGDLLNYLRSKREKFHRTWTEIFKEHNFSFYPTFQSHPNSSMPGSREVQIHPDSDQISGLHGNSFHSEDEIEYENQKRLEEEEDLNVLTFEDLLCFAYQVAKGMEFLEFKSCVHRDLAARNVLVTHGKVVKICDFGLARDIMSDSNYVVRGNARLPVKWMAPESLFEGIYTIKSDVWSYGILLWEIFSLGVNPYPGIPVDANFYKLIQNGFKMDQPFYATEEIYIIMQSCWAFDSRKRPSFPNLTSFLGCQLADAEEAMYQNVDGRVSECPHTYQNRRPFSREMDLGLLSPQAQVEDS
Procedure: as §1

PDK1 = target: T4, PDK1 (Homo sapiens, UniProt O15530); details: read-out: % Inhibition at 10 μM Concentration, PDK1
T4 sequence (O15530 1-556): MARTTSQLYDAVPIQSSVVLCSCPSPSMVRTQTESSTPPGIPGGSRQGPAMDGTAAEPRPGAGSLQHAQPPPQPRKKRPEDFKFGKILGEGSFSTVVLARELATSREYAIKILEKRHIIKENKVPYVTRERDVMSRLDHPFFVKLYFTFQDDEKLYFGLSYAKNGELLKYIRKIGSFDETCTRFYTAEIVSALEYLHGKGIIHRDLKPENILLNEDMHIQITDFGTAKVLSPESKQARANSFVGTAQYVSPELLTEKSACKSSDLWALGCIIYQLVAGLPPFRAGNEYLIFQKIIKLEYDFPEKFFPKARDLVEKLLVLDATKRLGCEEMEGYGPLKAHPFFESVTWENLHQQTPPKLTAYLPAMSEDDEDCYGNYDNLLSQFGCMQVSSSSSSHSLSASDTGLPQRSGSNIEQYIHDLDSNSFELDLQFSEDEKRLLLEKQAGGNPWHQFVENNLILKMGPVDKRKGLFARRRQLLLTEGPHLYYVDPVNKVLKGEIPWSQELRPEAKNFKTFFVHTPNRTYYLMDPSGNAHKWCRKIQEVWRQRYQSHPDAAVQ
Procedure: as §1

Sequence of KDR kinase (VEGFR2) (P35968 20-1356): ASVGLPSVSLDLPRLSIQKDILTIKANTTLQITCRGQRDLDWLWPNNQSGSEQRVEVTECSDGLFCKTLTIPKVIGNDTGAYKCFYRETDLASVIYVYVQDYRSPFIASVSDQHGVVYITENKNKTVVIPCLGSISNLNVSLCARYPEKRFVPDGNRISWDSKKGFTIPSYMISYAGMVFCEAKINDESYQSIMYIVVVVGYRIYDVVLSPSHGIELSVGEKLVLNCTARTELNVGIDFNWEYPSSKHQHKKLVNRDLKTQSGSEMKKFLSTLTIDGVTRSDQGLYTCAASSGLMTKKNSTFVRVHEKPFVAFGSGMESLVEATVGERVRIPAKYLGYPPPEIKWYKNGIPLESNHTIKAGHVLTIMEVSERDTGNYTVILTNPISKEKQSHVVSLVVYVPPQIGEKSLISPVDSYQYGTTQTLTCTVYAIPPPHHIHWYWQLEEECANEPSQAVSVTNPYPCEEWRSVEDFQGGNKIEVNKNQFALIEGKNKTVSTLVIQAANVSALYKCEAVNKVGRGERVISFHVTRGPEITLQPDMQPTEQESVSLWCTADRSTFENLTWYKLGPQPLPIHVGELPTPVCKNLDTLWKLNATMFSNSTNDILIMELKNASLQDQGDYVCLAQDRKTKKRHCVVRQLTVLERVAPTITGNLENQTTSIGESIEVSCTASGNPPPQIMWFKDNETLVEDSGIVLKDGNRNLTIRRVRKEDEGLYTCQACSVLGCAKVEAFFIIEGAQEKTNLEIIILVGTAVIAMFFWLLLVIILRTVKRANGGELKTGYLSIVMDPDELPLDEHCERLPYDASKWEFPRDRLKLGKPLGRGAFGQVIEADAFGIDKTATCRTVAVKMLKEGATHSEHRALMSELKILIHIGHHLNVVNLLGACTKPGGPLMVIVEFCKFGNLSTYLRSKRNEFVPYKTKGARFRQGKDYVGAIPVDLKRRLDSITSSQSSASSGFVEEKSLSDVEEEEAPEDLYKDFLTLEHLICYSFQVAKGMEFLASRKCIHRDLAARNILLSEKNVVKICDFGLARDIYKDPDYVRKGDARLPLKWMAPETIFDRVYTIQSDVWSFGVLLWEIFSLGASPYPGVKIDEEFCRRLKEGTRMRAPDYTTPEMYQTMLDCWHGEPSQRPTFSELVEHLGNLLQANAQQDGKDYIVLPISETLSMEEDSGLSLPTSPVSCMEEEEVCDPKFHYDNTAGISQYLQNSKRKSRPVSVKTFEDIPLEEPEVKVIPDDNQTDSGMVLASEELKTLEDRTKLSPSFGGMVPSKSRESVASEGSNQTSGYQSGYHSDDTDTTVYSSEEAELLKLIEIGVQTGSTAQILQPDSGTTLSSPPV

Compound | inhibition at 10 µM (KDR kinase (VEGFR2)) [%] | inhibition at 10 µM (CDC2/CDK1 (cycB)) [%] | inhibition at 10 µM (PKCg) [%] | inhibition at 10 µM (PDGFRb kinase) [%] | inhibition at 10 µM (PKA) [%] | inhibition at 10 µM (p38d kinase) [%] | inhibition at 10 µM (FLT-3 kinase) [%] | inhibition at 10 µM (PDK1) [%]
O=C1Nc2ccccc2/C1=C\c1ccc2c(/C=C/c3ccccc3Cl)n[nH]c2c1 [Example A60, (E)-3-((3-((E)-2-chlorostyryl)-1H-indazol-6-yl)methylene)indolin-2-one] | 8 | 18 | 3 | 2 | 7 | 3 | 10 | 1
O=C1Nc2ccccc2C1=Cc1ccc2c(/C=C/c3ccccn3)n[nH]c2c1 (mixture of isomers) [Example A41, (E and Z)-3-((3-((E)-2-(pyridin-2-yl)vinyl)-1H-indazol-6-yl)methylene)indolin-2-one] | 100 | 62 | 0 | 100 | -4 | -5 | 100 | 4
O=C1Nc2ccccc2/C1=C\c1ccc2[nH]nnc2c1 [Example A1, (E)-3-((1H-benzo[d][1,2,3]triazol-5-yl)methylene)indolin-2-one] | 59 | 2 | 9 | 46 | 9 | 0 | 93 | -3
COc1ccc2c(c1)C(=Cc1ccc3c(-c4ccc(N5CCN(C)CC5)nc4)n[nH]c3c1)C(=O)N2 (mixture of isomers) [Example A97, (E and Z)-5-methoxy-3-((3-(6-(4-methylpiperazin-1-yl)pyridin-3-yl)-1H-indazol-6-yl)methylene)indolin-2-one] | 93 | 15 | 0 | 0 | 0 | 13 | 100 | 73
O=C1Nc2ccccc2/C1=C\c1ccc2cn[nH]c2c1 [Example A5, (E)-3-((1H-indazol-6-yl)methylene)indolin-2-one] | 29 | 9 | -6 | 19 | -1 | -8 | 76 | 2
